Values joined by “and” are separate entries in the source; they are usually repeats but may differ in a detail not shown here. Equal values may be shown once.
Settings: Liquid, Calculated from knudsen effusion weight loss

[Ag+].[Br-] [silver bromide]
Settings	vapor or sublimation pressure
829.9 K	0.000109 kPa [middle of 4 runs]
849.9 K	0.000184 kPa [middle of 4 runs]
869.9 K	0.000316 kPa [middle of 4 runs]
889.9 K	0.00057 kPa and 0.000464 kPa and 0.000529 kPa
890 K	0.000602 kPa
909.9 K	0.000855 kPa and 0.000958 kPa and 0.000842 kPa
910 K	0.001143 kPa
929.9 K	0.001712 kPa [middle of 4 runs]
